Experimental data as given in patent US20230407243A1, “GENETIC PLATFORM TO INVESTIGATE THE FUNCTIONS OF BACTERIAL DRUG EFFLUX PUMPS” (priority 2022, published 2023).
Read-outs that look alike come from different tables or passages of the source.

How the values were obtained:
Type in all cases: cell-based, Escherichia coli
E. coli EKO-35 = test: microbe, parasite or virus in culture; conditions: for Fold change of MICs: EKO-35 compared to EKO-35 (reference); for Minimum inhibitory concentration (MIC), EKO-35 / Minimum Inhibitory Concentration, EKO-35 / MIC: technical duplicate; for MIC: Escherichia coli, EKO35
Procedure, shortened: (§1)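 LB o/n 37 °C → PBS pH 7.4, OD600 ~1.0 → 1/2000 in MHB II; 2-fold cmpd series, duplicate, DMSO ctrl; 18 h 37 °C, 900 rpm; OD600 post minus pre.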

E. coli ΔtolC = test: microbe, parasite or virus in culture; conditions: for Minimum inhibitory concentration (MIC), ΔtolC: Table 10, without pore; for Minimum inhibitory concentration (MIC), ΔtolC / Minimum Inhibitory Concentration, ΔtolC: technical duplicate; for Minimum Inhibitory Concentration, ΔtolC: Table 13A, non-porinated
Procedure, shortened: as §1

[1] = system: wild-type E. coli K-12 str. BW25113; test: microbe, parasite or virus in culture; conditions: technical duplicate; for MIC: Escherichia coli, BW25113
Procedure, shortened: as §1

EKO-35 araC::emrKY Pore = test: MIC susceptibility profiling, porinated efflux platform; conditions: for Fold changes of MICs: EKO-35 araC::emrKY Pore compared to EKO-35-Pore
Procedure, shortened: (§2)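 MIC values come from background-corrected OD600 readings (pre-incubation OD subtracted) after 18 h at 37 °C and 900 rpm in MHB II. Compounds were tested in duplicate as 2-fold dilutions. The inoculum came from 18 h LB cultures adjusted to OD600 ~1.0 and diluted 1/2000, and the pore-bearing strains were vancomycin-checked beforehand.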

EKO-35 araC::macAB Pore = test: as above; conditions: for Fold changes of MICs: EKO-35 araC::macAB Pore compared to EKO-35-Pore
Procedure, shortened: as §2

EKO-35 araC::mdtBC Pore = test: as above; conditions: for Fold changes of MICs: EKO-35 araC::mdtBC Pore compared to EKO-35-Pore
Procedure, shortened: as §2

EKO-35 araC::mdtEF Pore = test: as above; conditions: for Fold changes of MICs: EKO-35 araC::mdtEF Pore compared to EKO-35-Pore
Procedure, shortened: as §2

EKO-35 araC::mexCD Pore = test: as above; conditions: for Fold changes of MICs: EKO-35 araC::mexCD Pore compared to EKO-35-Pore
Procedure, shortened: as §2

EKO-35 (empty pCA24N) = test: microbe, parasite or virus in culture; conditions: 0.1 mM IPTG; for MIC: EKO-35 empty pCA24N
[2] = system: EKO-35 strains producing different efflux pumps (EKO-35 araC::X); test: Checkerboard synergy (FICI) of PAβN or NMP with antibiotics
Procedure, shortened: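 Checkerboard broth microdilution per CLSI in MHB II, inocula by colony resuspension; MIC taken as lowest concentration with no growth by OD600. FICI = (CA/MICA)+(CB/MICB), drug A being PAβN or NMP and drug B the antibiotic; synergy <0.5, additive >0.5–1.0, indifferent >1.0–2.0, antagonism >2.0.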

[3] = EKO-35 araC::emrKY Pore, technical duplicate
[4] = EKO-35 araC::macAB Pore, technical duplicate
[5] = EKO-35 araC::mdtBC Pore, technical duplicate
[6] = Table 14A, porinated, technical duplicate
[7] = EKO-35 araC::mexCD Pore, technical duplicate
[8] = EKO-35 acrEF, PAβN + antibiotic
[9] = strain EKO-35 acrD, NMP + antibiotic

For benzalkonium chloride, the “Fold change of MICs” value (E. coli EKO-35) was 1 fold, the “Minimum inhibitory concentration (MIC), EKO-35” value (E. coli EKO-35; Table 10, without pore) was 0.391 µg/mL and the “Minimum Inhibitory Concentration, EKO-35” value (E. coli EKO-35; Table 13A, non-porinated) was 0.391 µg/mL. The “Minimum inhibitory concentration (MIC), ΔtolC” value (E. coli ΔtolC) was 0.391 µg/mL, the “Minimum Inhibitory Concentration, ΔtolC” value (E. coli ΔtolC) was 0.391 µg/mL and the “Minimum inhibitory concentration (MIC), K-12” value ([1]; Table 10, without pore) was 12.5 µg/mL. For the same compound, the “Minimum Inhibitory Concentration, K-12” value ([1]; Table 13A, non-porinated) was 12.5 µg/mL, the “Fold changes of MICs” value (EKO-35 araC::emrKY Pore) was 1 fold and the Minimum inhibitory concentration (EKO-35 araC::emrKY Pore; [3]) was 0.195 µg/mL. The “Fold changes of MICs” value (EKO-35 araC::macAB Pore) was 1 fold, the Minimum inhibitory concentration (EKO-35 araC::macAB Pore; [4]) was 0.391 µg/mL and the “Fold changes of MICs” value (EKO-35 araC::mdtBC Pore) was 1 fold. For the same compound, the Minimum inhibitory concentration (EKO-35 araC::mdtBC Pore; [5]) was 0.195 µg/mL, the “Fold changes of MICs” value (EKO-35 araC::mdtEF Pore) was 4 fold and the “Minimum inhibitory concentration, EKO-35 araC::mdtEF Pore” value (EKO-35 araC::mdtEF Pore; [6]) was 1.563 µg/mL. The “Fold changes of MICs” value (EKO-35 araC::mexCD Pore) was 1 fold, the Minimum inhibitory concentration (EKO-35 araC::mexCD Pore; [7]) was 0.391 µg/mL and the MIC (EKO-35 (empty pCA24N); Chlor + (4 μg/mL chloramphenicol)) was 0.781 µg/mL. For the same compound, the MIC (EKO-35 (empty pCA24N); Chlor −) was 0.781 µg/mL.

`O=C(Nc1ccccc1C(=O)Nc1nnc(C(F)(F)F)s1)c1ccccc1Cl` [compound 19] was tested, and the “Fold change of MICs” value (E. coli EKO-35) was 1 fold, the “Minimum inhibitory concentration (MIC), EKO-35” value (E. coli EKO-35; Table 10, without pore) was 320 µg/mL and the “Minimum Inhibitory Concentration, EKO-35” value (E. coli EKO-35; Table 13A, non-porinated) was 320 µg/mL. For the same compound, the “Minimum inhibitory concentration (MIC), ΔtolC” value (E. coli ΔtolC) was 2.5 µg/mL, the “Minimum Inhibitory Concentration, ΔtolC” value (E. coli ΔtolC) was 2.5 µg/mL and the “Minimum inhibitory concentration (MIC), K-12” value ([1]; Table 10, without pore) was 320 µg/mL. For the same compound, the “Minimum Inhibitory Concentration, K-12” value ([1]; Table 13A, non-porinated) was 320 µg/mL, the “Fold changes of MICs” value (EKO-35 araC::emrKY Pore) was 1 fold and the Minimum inhibitory concentration (EKO-35 araC::emrKY Pore; [3]) was 320 µg/mL. For the same compound, the “Fold changes of MICs” value (EKO-35 araC::macAB Pore) was 1 fold, the Minimum inhibitory concentration (EKO-35 araC::macAB Pore; [4]) was 320 µg/mL and the “Fold changes of MICs” value (EKO-35 araC::mdtBC Pore) was 1 fold. The Minimum inhibitory concentration (EKO-35 araC::mdtBC Pore; [5]) was 320 µg/mL, the “Fold changes of MICs” value (EKO-35 araC::mdtEF Pore) was 1 fold and the “Minimum inhibitory concentration, EKO-35 araC::mdtEF Pore” value (EKO-35 araC::mdtEF Pore; [6]) was 320 µg/mL. For the same compound, the “Fold changes of MICs” value (EKO-35 araC::mexCD Pore) was 1 fold, the Minimum inhibitory concentration (EKO-35 araC::mexCD Pore; [7]) was 320 µg/mL and the “MIC, EKO-35 (empty pCA24N), Chlor +” value (EKO-35 (empty pCA24N); 4 μg/mL chloramphenicol selection) was >5 μg/mL. For the same compound, the “MIC, EKO-35 (empty pCA24N), Chlor −” value (EKO-35 (empty pCA24N); no plasmid selection) was >5 μg/mL.

`Cc1onc(-c2ccccc2)c1C(=O)N[C@@H]1C(=O)N2[C@@H]1SC(C)(C)[C@@H]2C(=O)O` [oxacillin] was tested, and the MIC (E. coli EKO-35; Table 10, without pore, read-out: Minimum inhibitory concentration (MIC), EKO-35) was 0.625 µg/mL, the MIC (E. coli EKO-35; Table 13A, non-porinated, read-out: Minimum Inhibitory Concentration, EKO-35) was 0.625 µg/mL and the MIC (E. coli ΔtolC; Escherichia coli, 18 h, read-out: Minimum Inhibitory Concentration, ΔtolC) was 0.625 µg/mL. For the same compound, the “Minimum inhibitory concentration (MIC), ΔtolC” value (E. coli ΔtolC) was 0.625 µg/mL, the MIC ([1]; Table 10, without pore, read-out: Minimum inhibitory concentration (MIC), K-12) was 160 µg/mL and the MIC ([1]; Table 13A, non-porinated, read-out: Minimum Inhibitory Concentration, K-12) was 160 µg/mL. It also gave an MIC (EKO-35 araC::emrKY Pore; Escherichia coli, EKO-35 araC::emrKY Pore, technical duplicate, read-out: Minimum inhibitory concentration) of 0.313 µg/mL, an MIC (EKO-35 araC::macAB Pore; Escherichia coli, EKO-35 araC::macAB Pore, technical duplicate, read-out: Minimum inhibitory concentration) of 0.313 µg/mL and an MIC (EKO-35 araC::mdtBC Pore; Escherichia coli, EKO-35 araC::mdtBC Pore, technical duplicate, read-out: Minimum inhibitory concentration) of 0.313 µg/mL. For the same compound, the MIC (EKO-35 araC::mdtEF Pore; Escherichia coli, Table 14A, porinated, technical duplicate, read-out: Minimum inhibitory concentration, EKO-35 araC::mdtEF Pore) was 1.25 µg/mL, the MIC (EKO-35 araC::mexCD Pore; Escherichia coli, EKO-35 araC::mexCD Pore, technical duplicate, read-out: Minimum inhibitory concentration) was 2.5 µg/mL and the Effect ([2]; EKO-35 acrB, NMP + antibiotic) was “Additive”. The Effect ([2]; EKO-35 acrB, PAβN + antibiotic) was “Synergistic”, the FICI ([2]; EKO-35 acrB, PAβN + antibiotic) was 0.125 and the “MICb Alone” value ([2]; EKO-35 acrB, antibiotic alone (PAβN checkerboard)) was 1024 µg/mL. For the same compound, the “MICb Combined” value ([2]; EKO-35 acrB, antibiotic in combination with PAβN) was 64 µg/mL, the Effect ([2]; EKO-35 acrD, NMP + antibiotic) was “Additive” and the FICI ([2]; EKO-35 acrD, NMP + antibiotic) was 0.750. For the same compound, the Effect ([2]; EKO-35 acrD, PAβN + antibiotic) was “Synergistic”, the FICI ([2]; EKO-35 acrD, PAβN + antibiotic) was 0.156 and the “MICb Combined” value ([2]; EKO-35 acrD, antibiotic in combination with PAβN) was 16 µg/mL. For the same compound, the Effect ([2]; EKO-35 acrEF, NMP + antibiotic) was “Synergistic”, the Effect [2, 8] was “Synergistic” and the FICI [2, 8] was 0.133. For the same compound, the “MICb Alone” value ([2]; EKO-35 acrEF, antibiotic alone (PAβN checkerboard)) was 256 µg/mL, the “MICb Combined” value ([2]; EKO-35 acrEF, antibiotic in combination with PAβN) was 2 µg/mL and the Effect ([2]; strain EKO-35 acrB, NMP + antibiotic) was “Additive (additive (FICI >0.5-1.0))”. The “MICb Combined” value ([2]; strain EKO-35 acrB, antibiotic in combination with NMP) was 16 µg/mL, the Effect [2, 9] was “Additive (additive (FICI >0.5-1.0))” and the FICI [2, 9] was 0.750. The “MICb Combined” value ([2]; strain EKO-35 acrD, antibiotic in combination with NMP) was 32 µg/mL, the Effect ([2]; strain EKO-35 acrEF, NMP + antibiotic) was “Synergistic (Synergy (FICI ≤0.5))” and the “MICb Alone” value ([2]; strain EKO-35 acrEF, antibiotic alone) was 256 µg/mL. The “MICb Combined” value ([2]; strain EKO-35 acrEF, antibiotic in combination with NMP) was 64 µg/mL.
